From US20040138315A1 (priority 2000, published 2004)
Where two headings read alike, the source gives them in different places.

What was measured:
[1] = system: adenosine diphosphate-induced aggregation of platelet rich plasma (ADP receptor); assay: Adenosine diphosphate, platelet aggregation (404010); type: cell-based, rabbit; details: 30 μM, platelet rich plasma, rabbit
Experimental: (§1) Test compounds referred to above were evaluated for inhibition of platelet aggregation induced by adenosine diphosphate, arachidonic acid, phorbol ester and Platelet Activating Factor (PAF) at […]. The following methods were employed in this analysis, and reference compounds for the respective assays are indicated in Appendix 1:
Venous blood obtained from male or female New Zealand derived albino rabbits weighing 2.5-3 kg was mixed with one-tenth volume of trisodium citrate (0.13 M) and centrifuged at room temperature for 10 min at 220 g. Test substance (30 EM)-induced aggregation of the supernatant platelet rich plasma by 50 percent or more (>50%) more relative to 1.2 μM adenosine diphosphate control response at 37° C. as mearsured by an optical aggregometer, indicates possible ADP receptor agonist activity.
At a test substance concentration where no significant agonist activity is seen, ability to reduce the adenosine diphosphate-induced maximum non-reversible aggregation response by 50 percent or more (≧50%) was indicative of ADP receptor antagonist activity.

[2] = system: arachidonic acid-induced aggregation of platelet rich plasma; assay: Arachidonic acid, platelet aggregation (412510); type: cell-based, rabbit; details: 30 μM, platelet rich plasma, rabbit
Experimental: as §1
Venous blood obtained from male or female New Zealand derived albino rabbits weighting 2.5-3 kg was mixed with one-tenth volume of trisodeium citrate (0.13M) and centrifuged at room temperature for 10 min at 220 g. Test substance (30 μM)-induced aggregation of the supernatant platelet rich plasma by 50 percent or more (≧50%) within 5 min, relative to 100 μM arachidonic acid response at 37° C. as measured by an optical aggregometer indicates possible agonist activity.
At a test substance concentration where no significant agonist activity is seen, ability to reduce the arachidonic acid-induced maximum non-reversible aggregation response by 50 percent or more (>50%) was indicative of antagonist activity.

[3] = system: PMA-induced aggregation of platelet rich plasma (phorbol ester receptor); assay: Phorbol ester, platelet aggregation (461500); type: cell-based, rabbit; details: 30 μM, platelet rich plasma, rabbit
Experimental: as §1
(§2) Venous blood obtained from male or female New Zealand derived albino rabbits weighing 2.5-3 kg is mixed with one-tenth volume of trisodium citrate (0.13 M) and centrifuged at room temperature for 10 min at 220 g. Test substance (30 μM)-induced aggregation of the supernatant platelet rich plasma by 50 percent or more (≧50%) within 5 min, relative to control phorbol myristate acetate (PMA, 0.5 μM) response at 37° C. as measured by an optical aggregometer, indicates possible phorbol ester receptor agonist activity.
At a test substance concentration where no significant agonist activity is seen, ability to reduce the PMA (0.5 μM)-induced maximum non-reversible aggregation response by 50 percent or more (>50%) indicates phorbol ester receptor antagonist activity.

[4] = system: PAF-acether-induced aggregation of platelet rich plasma (PAF receptor); assay: PAF, platelet aggregation (463010); type: cell-based, rabbit; details: 30 μM, platelet rich plasma, rabbit
Experimental: as §1
as §2, with “temperture” for “temperature”, “Substance” for “substance”, “5 nM platelet activating factor-acether (PAF-acether)” for “phorbol myristate acetate (PMA, 0.5 μM)”, “37[…]” for “37° C.”, “PAF” for “phorbol ester”
At a test substance concentration where no significant agonist activity is seen, ability to reduce the PAF-acether-induced maximum non-reversible aggregation response by 50 percent or more (≧50%) indicates PAF receptor antagonist activity.

cyclooxygenase COX-1 = biological target: T1, cyclooxygenase COX-1 (Homo sapiens, UniProt P23219); assay: Cyclooxygenase COX-1 inhibition in human platelets, PGE2 EIA (116010); type: cell-based; details: screened at 10 μM
T1 construct: host or cells: human platelets
Experimental: (§3) In these assays, in addition to the designations set forth above, IG-05 refers to resorcinol and IG-06 refers to orcinol.
To assess COX-1 inhibition, test compound and/or vehicle was incubated with human platelets (5×10^7/well) for 15 minutes at5 37° C. Calcium ionophore A23187 (10 μM) was added to induce the arachidonic acid cascade. After another 15 minutes incubation at 37° C., PGE2 levels in the supernatant were quantiated using the Amersham EIA kit. Compounds were screened at 10 μM.

[5] = biological target: T2, cyclooxygenase-2 (human recombinant) (Homo sapiens, UniProt P35354); assay: Cyclooxygenase COX-2 inhibition, recombinant enzyme, PGE2 EIA (118010); type: biochemical; details: screened at 10 μM
T2 construct: 118010; host or cells: Spodoptera frugiperda (insect cells)
T2 sequence (P35354 18-604): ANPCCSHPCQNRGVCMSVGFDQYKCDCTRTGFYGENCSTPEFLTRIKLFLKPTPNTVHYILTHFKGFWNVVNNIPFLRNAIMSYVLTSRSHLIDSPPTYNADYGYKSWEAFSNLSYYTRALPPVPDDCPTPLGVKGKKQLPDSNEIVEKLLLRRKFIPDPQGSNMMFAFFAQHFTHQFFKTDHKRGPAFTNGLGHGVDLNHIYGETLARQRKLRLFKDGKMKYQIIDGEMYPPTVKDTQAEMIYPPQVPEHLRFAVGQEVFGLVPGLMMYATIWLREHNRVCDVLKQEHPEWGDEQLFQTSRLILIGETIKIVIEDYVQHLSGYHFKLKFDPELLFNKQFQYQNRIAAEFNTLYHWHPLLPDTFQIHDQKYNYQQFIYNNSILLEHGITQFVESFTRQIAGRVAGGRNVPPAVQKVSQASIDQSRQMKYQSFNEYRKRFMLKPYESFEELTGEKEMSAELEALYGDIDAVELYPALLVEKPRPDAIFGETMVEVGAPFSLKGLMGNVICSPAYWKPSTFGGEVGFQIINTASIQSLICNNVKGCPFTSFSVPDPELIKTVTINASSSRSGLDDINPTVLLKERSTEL
Experimental: as §3
Following centrifugation, substrate conversion to PGE2 was measured by an Amersham EIA kit. Compounds are screened at 10 μM.

thromboxane A2 synthase [6] = biological target: T3, thromboxane A2 synthase (Oryctolagus cuniculus, UniProt G1TAZ9); assay: Thromboxane A2 synthase inhibition, TXB2 radioimmunoassay (194000); type: biochemical, rabbit
T3 sequence (G1TAZ9 1-530): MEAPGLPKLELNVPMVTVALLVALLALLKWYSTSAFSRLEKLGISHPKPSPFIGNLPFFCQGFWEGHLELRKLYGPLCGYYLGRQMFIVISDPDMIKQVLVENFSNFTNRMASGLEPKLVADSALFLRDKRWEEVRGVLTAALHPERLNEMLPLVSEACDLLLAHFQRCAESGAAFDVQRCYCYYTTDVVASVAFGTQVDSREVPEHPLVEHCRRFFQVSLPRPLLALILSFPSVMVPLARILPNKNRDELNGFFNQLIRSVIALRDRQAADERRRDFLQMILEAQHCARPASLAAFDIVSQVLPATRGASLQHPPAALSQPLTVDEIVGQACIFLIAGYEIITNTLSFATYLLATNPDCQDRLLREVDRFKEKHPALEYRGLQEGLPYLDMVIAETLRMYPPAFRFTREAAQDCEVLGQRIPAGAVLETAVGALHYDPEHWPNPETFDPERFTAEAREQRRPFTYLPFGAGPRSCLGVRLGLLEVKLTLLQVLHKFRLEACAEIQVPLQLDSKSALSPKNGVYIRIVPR
Experimental: Test compounds (IG-1 through IG-11) were evaluated for their ability to inhibit cyclooxygenase COX-1, cyclooxygenase COX-2, and thromboxane synthase. In these assays, in addition to the designations set forth above, IG-05 refers to resorcinol and IG-06 refers to orcinol.
To assess Thromboxane A2 synthase, thromboxane A2 synthase isolated from a microsomal fraction of rabbit platelets by conventional centrifugation was used. The test compound and/or vehicle was incubated with 1:200 dilution of thromboxane A2 synthase and 5 ng prostaglandin G2 as substrate in Tris buffer pH 7.5 for 30 minutes at 37° C. The thromboxane A2 formed is immediately converted to thromboxane B2, which was quantitated by a radioimmunoassay. Compounds are screened at 100 μM.

thromboxane A2 synthase [7] = biological target: T3, thromboxane A2 synthase; details: reference compound, historical; read-out: Historical IC50, Thromboxane Synthetase; cited from earlier work

T1 sequence (P23219 24-599): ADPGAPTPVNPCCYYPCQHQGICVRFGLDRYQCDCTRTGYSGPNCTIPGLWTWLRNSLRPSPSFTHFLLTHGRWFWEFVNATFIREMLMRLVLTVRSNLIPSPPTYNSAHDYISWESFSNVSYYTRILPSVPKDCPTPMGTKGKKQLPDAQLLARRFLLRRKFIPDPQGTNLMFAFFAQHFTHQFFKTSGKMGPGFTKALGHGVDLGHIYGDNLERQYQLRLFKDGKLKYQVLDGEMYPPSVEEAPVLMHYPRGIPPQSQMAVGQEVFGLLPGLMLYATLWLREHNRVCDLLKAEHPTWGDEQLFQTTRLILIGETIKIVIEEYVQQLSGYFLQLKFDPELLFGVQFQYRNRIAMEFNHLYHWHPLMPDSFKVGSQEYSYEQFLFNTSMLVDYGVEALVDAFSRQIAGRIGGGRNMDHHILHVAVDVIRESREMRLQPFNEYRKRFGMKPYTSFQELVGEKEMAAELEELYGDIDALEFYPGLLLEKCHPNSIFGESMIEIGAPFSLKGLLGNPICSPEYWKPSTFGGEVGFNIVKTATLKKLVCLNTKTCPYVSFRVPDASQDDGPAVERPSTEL

| Compound | ANT. (antagonist response), ADP platelet aggregation [1] | AG. (agonist response), ADP platelet aggregation ([1]; relative to […] ADP) | ANT. (antagonist response), arachidonic acid platelet aggregation [2] | AG. (agonist response), arachidonic acid platelet aggregation ([2]; relative to 100 μM arachidonic acid) | ANT. (antagonist response), phorbol ester platelet aggregation [3] | AG. (agonist response), phorbol ester platelet aggregation ([3]; relative to PMA 0.5 μM) | ANT. (antagonist response), PAF platelet aggregation [4] | AG. (agonist response), PAF platelet aggregation ([4]; relative to 5 nM PAF-acether) | COX-1 inhibition (in words) (cyclooxygenase COX-1) | COX-2 inhibition (in words) [5] | Thromboxane synthase inhibition (in words) (thromboxane A2 synthase [6]; screened at 100 μM) | melting point | IC50 (thromboxane A2 synthase [6]; reference compound, concurrent, read-out: Concurrent IC50, Thromboxane Synthetase) | IC50 (thromboxane A2 synthase [7]) |
| --- | --- | --- | --- | --- | --- | --- | --- | --- | --- | --- | --- | --- | --- | --- |
| Cc1c(O)cc(C(C)(C)CCCC(C)C)cc1O [IG-10, 2-Methyl-5-(1,1,5-trimethylhexyl)resorcinol] | 17% | 0% | 100% | 0% | 9% | 0% | 6% | 0% | potent inhibitors of COX-1 | not COX-2 | significantly inhibit thromboxane synthase | 145 to 147 °C |  |  |
| O=C(O)c1ccc(OCCn2ccnc2)cc1 [Dazoxiben, reference compound] |  |  |  |  |  |  |  |  |  |  |  |  | 61 nM | 22 nM |
